# Reference: PubChem BioAssay (NCI)
#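 Interpolation was linear, between the two tested concentrations surrounding the appropriate level; five concentrations were tested over 48 hours in 96-well plates. TGI is the concentration that stops growth completely.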
# Tests used:
# Assay in all cases: NCI tumour cell line growth inhibition, 48 h
# 786-0 renal = system: 786-0 renal
# A498 renal = system: A498 renal
# A549 NSCLC = system: A549 NSCLC
# ACHN renal = system: ACHN renal
# CAKI-1 renal = system: CAKI-1 renal
# CCRF-CEM leukemia = system: CCRF-CEM leukemia
# COLO 205 colon = system: COLO 205 colon
# DU-145 prostate = system: DU-145 prostate
# EKVX NSCLC = system: EKVX NSCLC
# HCC-2998 colon = system: HCC-2998 colon
# HCT-116 colon = system: HCT-116 colon
# HCT-15 colon = system: HCT-15 colon
# HL-60(TB) leukemia = system: HL-60(TB) leukemia
# HOP-62 NSCLC = system: HOP-62 NSCLC
# HOP-92 NSCLC = system: HOP-92 NSCLC
# HS 578T breast = system: HS 578T breast
# HT29 colon = system: HT29 colon
# IGROV1 ovarian = system: IGROV1 ovarian
# K-562 leukemia = system: K-562 leukemia
# KM12 colon = system: KM12 colon
# M14 melanoma = system: M14 melanoma
# MALME-3M melanoma = system: MALME-3M melanoma
# MCF7 breast = system: MCF7 breast
# MDA-MB-231 breast = system: MDA-MB-231 breast
# MDA-MB-435 = system: MDA-MB-435
# MDA-N = system: MDA-N
# MOLT-4 leukemia = system: MOLT-4 leukemia
# NCI-H226 lung = system: NCI-H226 lung
# NCI-H23 lung = system: NCI-H23 lung
# NCI-H460 lung = system: NCI-H460 lung
# NCI/ADR-RES ovarian = system: NCI/ADR-RES ovarian
# OVCAR-3 ovarian = system: OVCAR-3 ovarian
# OVCAR-4 ovarian = system: OVCAR-4 ovarian
# OVCAR-5 ovarian = system: OVCAR-5 ovarian
# OVCAR-8 ovarian = system: OVCAR-8 ovarian
# PC-3 prostate = system: PC-3 prostate
# RPMI-8226 leukemia = system: RPMI-8226 leukemia
# RXF 393 renal = system: RXF 393 renal
# SF-268 CNS = system: SF-268 CNS
# SF-295 CNS = system: SF-295 CNS
# SF-539 CNS = system: SF-539 CNS
# SK-MEL-2 melanoma = system: SK-MEL-2 melanoma
# SK-MEL-28 melanoma = system: SK-MEL-28 melanoma
# SK-MEL-5 melanoma = system: SK-MEL-5 melanoma
# SN12C renal = system: SN12C renal
# SNB-19 CNS = system: SNB-19 CNS
# SNB-75 CNS = system: SNB-75 CNS
# SR leukemia = system: SR leukemia
# SW-620 colon = system: SW-620 colon
# T-47D breast = system: T-47D breast
# TK-10 renal = system: TK-10 renal
# UACC-257 melanoma = system: UACC-257 melanoma
# UACC-62 melanoma = system: UACC-62 melanoma
# UO-31 renal = system: UO-31 renal
# LOX IMVI melanoma = system: LOX IMVI melanoma
# NCI-H522 lung = system: NCI-H522 lung
# SK-OV-3 ovarian = system: SK-OV-3 ovarian
# U251 CNS = system: U251 CNS
smiles,measurement,setting,value
COCn1cc(C2=C(C)C(=O)C(C)=C(C)C2=O)cn1,TGI,786-0 renal,32.2 µM
same,TGI,A498 renal,> 100 µM
same,TGI,A549 NSCLC,> 100 µM
same,TGI,ACHN renal,> 100 µM
same,TGI,CAKI-1 renal,> 100 µM
same,TGI,CCRF-CEM leukemia,60.8 µM
same,TGI,COLO 205 colon,> 100 µM
same,TGI,DU-145 prostate,> 100 µM
same,TGI,EKVX NSCLC,32.5 µM
same,TGI,HCC-2998 colon,> 100 µM
same,TGI,HCT-116 colon,36.7 µM
same,TGI,HCT-15 colon,> 100 µM
same,TGI,HL-60(TB) leukemia,24.3 µM
same,TGI,HOP-62 NSCLC,> 100 µM
same,TGI,HOP-92 NSCLC,37.5 µM
same,TGI,HS 578T breast,> 100 µM
same,TGI,HT29 colon,> 100 µM
same,TGI,IGROV1 ovarian,> 100 µM
same,TGI,K-562 leukemia,42.6 µM
same,TGI,KM12 colon,> 100 µM
same,TGI,M14 melanoma,> 100 µM
same,TGI,MALME-3M melanoma,> 100 µM
same,TGI,MCF7 breast,> 100 µM
same,TGI,MDA-MB-231 breast,40.8 µM
same,TGI,MDA-MB-435,33.9 µM
same,TGI,MDA-N,> 100 µM
same,TGI,MOLT-4 leukemia,42 µM
same,TGI,NCI-H226 lung,> 100 µM
same,TGI,NCI-H23 lung,> 100 µM
same,TGI,NCI-H460 lung,> 100 µM
same,TGI,NCI/ADR-RES ovarian,59.3 µM
same,TGI,OVCAR-3 ovarian,40 µM
same,TGI,OVCAR-4 ovarian,31.7 µM
same,TGI,OVCAR-5 ovarian,> 100 µM
same,TGI,OVCAR-8 ovarian,36.8 µM
same,TGI,PC-3 prostate,> 100 µM
same,TGI,RPMI-8226 leukemia,60.2 µM
same,TGI,RXF 393 renal,> 100 µM
same,TGI,SF-268 CNS,66 µM
same,TGI,SF-295 CNS,> 100 µM
same,TGI,SF-539 CNS,> 100 µM
same,TGI,SK-MEL-2 melanoma,> 100 µM
same,TGI,SK-MEL-28 melanoma,> 100 µM
same,TGI,SK-MEL-5 melanoma,> 100 µM
same,TGI,SN12C renal,> 100 µM
same,TGI,SNB-19 CNS,> 100 µM
same,TGI,SNB-75 CNS,> 100 µM
same,TGI,SR leukemia,65.9 µM
same,TGI,SW-620 colon,> 100 µM
same,TGI,T-47D breast,56.1 µM
same,TGI,TK-10 renal,> 100 µM
same,TGI,UACC-257 melanoma,> 100 µM
same,TGI,UACC-62 melanoma,> 100 µM
same,TGI,UO-31 renal,> 100 µM
CC1(C)CC[C@]2(C(=O)O)CC[C@]3(C)C(=CCC4=C5C[C@H](O)[C@H](O)[C@@](C)(CO)[C@@]5(C)CC[C@]43C)[C@@H]2C1,TGI,786-0 renal,> 100 µM
same,TGI,A498 renal,> 100 µM
same,TGI,A549 NSCLC,> 100 µM
same,TGI,ACHN renal,> 100 µM
same,TGI,CAKI-1 renal,87.2 µM
same,TGI,CCRF-CEM leukemia,> 100 µM
same,TGI,COLO 205 colon,30 µM
same,TGI,DU-145 prostate,> 100 µM
same,TGI,EKVX NSCLC,> 100 µM
same,TGI,HCC-2998 colon,64.1 µM
same,TGI,HCT-116 colon,> 100 µM
same,TGI,HCT-15 colon,> 100 µM
same,TGI,HL-60(TB) leukemia,> 100 µM
same,TGI,HOP-62 NSCLC,> 100 µM
same,TGI,HOP-92 NSCLC,> 100 µM
same,TGI,HS 578T breast,> 100 µM
same,TGI,HT29 colon,> 100 µM
same,TGI,IGROV1 ovarian,> 100 µM
same,TGI,K-562 leukemia,> 100 µM
same,TGI,KM12 colon,> 100 µM
same,TGI,LOX IMVI melanoma,> 100 µM
same,TGI,M14 melanoma,> 100 µM
same,TGI,MALME-3M melanoma,> 100 µM
same,TGI,MCF7 breast,> 100 µM
same,TGI,MDA-MB-231 breast,> 100 µM
same,TGI,MDA-MB-435,> 100 µM
same,TGI,MDA-N,> 100 µM
same,TGI,MOLT-4 leukemia,> 100 µM
same,TGI,NCI-H23 lung,> 100 µM
same,TGI,NCI-H460 lung,81.8 µM
same,TGI,NCI-H522 lung,> 100 µM
same,TGI,NCI/ADR-RES ovarian,> 100 µM
same,TGI,OVCAR-3 ovarian,> 100 µM
same,TGI,OVCAR-4 ovarian,71.4 µM
same,TGI,OVCAR-5 ovarian,> 100 µM
same,TGI,OVCAR-8 ovarian,> 100 µM
same,TGI,PC-3 prostate,> 100 µM
same,TGI,RPMI-8226 leukemia,> 100 µM
same,TGI,SF-268 CNS,> 100 µM
same,TGI,SF-295 CNS,> 100 µM
same,TGI,SF-539 CNS,> 100 µM
same,TGI,SK-MEL-2 melanoma,> 100 µM
same,TGI,SK-MEL-28 melanoma,> 100 µM
same,TGI,SK-MEL-5 melanoma,62.8 µM
same,TGI,SK-OV-3 ovarian,> 100 µM
same,TGI,SN12C renal,> 100 µM
same,TGI,SNB-19 CNS,> 100 µM
same,TGI,SNB-75 CNS,83.8 µM
same,TGI,SR leukemia,> 100 µM
same,TGI,SW-620 colon,> 100 µM
same,TGI,T-47D breast,89.5 µM
same,TGI,TK-10 renal,> 100 µM
same,TGI,U251 CNS,> 100 µM
same,TGI,UACC-257 melanoma,> 100 µM
same,TGI,UACC-62 melanoma,> 100 µM
same,TGI,UO-31 renal,> 100 µM
O=C1CSC(c2ccccc2O)N1c1ccc2c(c1)Oc1c(Cl)c3c(c(Cl)c1=N2)Oc1cc(N2C(=O)CSC2c2ccccc2O)ccc1N=3 (stereo unspecified),TGI,786-0 renal,> 100 µM
same,TGI,A498 renal,> 100 µM
same,TGI,ACHN renal,55.1 µM
same,TGI,CAKI-1 renal,> 100 µM
same,TGI,CCRF-CEM leukemia,> 100 µM
same,TGI,DU-145 prostate,> 100 µM
same,TGI,EKVX NSCLC,> 100 µM
same,TGI,HCC-2998 colon,> 100 µM
same,TGI,HCT-116 colon,> 100 µM
same,TGI,HCT-15 colon,> 100 µM
same,TGI,HL-60(TB) leukemia,> 100 µM
same,TGI,HOP-62 NSCLC,> 100 µM
same,TGI,HOP-92 NSCLC,39.9 µM
same,TGI,HS 578T breast,> 100 µM
same,TGI,HT29 colon,> 100 µM
same,TGI,IGROV1 ovarian,> 100 µM
same,TGI,K-562 leukemia,> 100 µM
same,TGI,KM12 colon,> 100 µM
same,TGI,LOX IMVI melanoma,> 100 µM
same,TGI,M14 melanoma,> 100 µM
same,TGI,MCF7 breast,> 100 µM
same,TGI,MDA-MB-231 breast,> 100 µM
same,TGI,MDA-MB-435,> 100 µM
same,TGI,MDA-N,> 100 µM
same,TGI,MOLT-4 leukemia,46.4 µM
same,TGI,NCI-H226 lung,> 100 µM
same,TGI,NCI-H23 lung,> 100 µM
same,TGI,NCI-H460 lung,> 100 µM
same,TGI,NCI-H522 lung,52 µM
same,TGI,NCI/ADR-RES ovarian,> 100 µM
same,TGI,OVCAR-3 ovarian,> 100 µM
same,TGI,OVCAR-4 ovarian,> 100 µM
same,TGI,OVCAR-5 ovarian,> 100 µM
same,TGI,OVCAR-8 ovarian,> 100 µM
same,TGI,PC-3 prostate,> 100 µM
same,TGI,RPMI-8226 leukemia,> 100 µM
same,TGI,RXF 393 renal,44.5 µM
same,TGI,SF-268 CNS,> 100 µM
same,TGI,SF-295 CNS,> 100 µM
same,TGI,SF-539 CNS,> 100 µM
same,TGI,SK-MEL-2 melanoma,> 100 µM
same,TGI,SK-MEL-28 melanoma,> 100 µM
same,TGI,SK-MEL-5 melanoma,> 100 µM
same,TGI,SK-OV-3 ovarian,71.3 µM
same,TGI,SR leukemia,> 100 µM
same,TGI,SW-620 colon,> 100 µM
same,TGI,T-47D breast,> 100 µM
same,TGI,TK-10 renal,> 100 µM
same,TGI,U251 CNS,65 µM
same,TGI,UACC-257 melanoma,> 100 µM
same,TGI,UO-31 renal,> 100 µM
